Results: patent US20170216277A1, “[…] USE OF […] […] EFFECTS” (TREVI THERAPEUTICS, INC., priority 2016, published 2017)

Tests used:
[1] = Heart rate, TR01, healthy subjects; assay type: in vivo, human
Description: (§1) The presence and extent of a possible aquaretic effect was evaluated by measuring urine output (healthy subjects only) and serum sodium as well as blood pressure and heart rate, as markers of potential volume depletion.
(§2) In the dialysis patients, all vital sign measurements and blood samples were collected pre-dialysis. On days of study drug administration, vital signs were measured at 0 (prior to the morning dose), 1.5, 4.5, and 8 hours after the morning dose and 2 hours after the evening meal, coinciding with administration of the PM dose. Blood pressure was also measured at 6 and 10 hours post dinner. On Day −1 (pre-treatment) vital sign measurements were obtained in the morning and evening at approximately the same time that study drug was administered on subsequent treatment days.
(§3) Blood pressure and heart rate were measured at multiple time points on Days −1 through 14 or 17.

[2] = Adverse event reporting of increased urine output, TR01, hemodialysis patients; assay type: in vivo, human; settings: dialysis patients in TR01; urine collection not performed
Excerpt: Based on historical data, the dialysis patients in TR01 had limited to no residual renal function.

[3] = Heart rate, TR01, hemodialysis patients; assay type: in vivo, human
Description: as §1, §2, §3

[4] = Serum sodium (pre-dialysis), TR01, hemodialysis patients (Cohort 1); assay type: in vivo, human
[5] = Blood pressure (diastolic and systolic), TR01, healthy subjects
Description: as §1, §2, §3

[6] = Overall evaluation of aquaretic effect, TR01; assay type: in vivo, human
Description: (§4) The presence and extent of a possible aquaretic effect was evaluated by measuring urine output (healthy subjects only) and serum sodium as well as blood pressure and heart rate, as markers of potential volume depletion. Urine specific gravity was also analyzed to assess for reduced urine osmolarity (resulting in a decrease in urine specific gravity) due to free water excretion.

[7] = Blood pressure (diastolic and systolic), TR01, hemodialysis patients
Description: as §1, §2, §3

[8] = Serum sodium, TR01, healthy subjects (Cohort 2); assay type: in vivo, human
[9] = oral aqueous solution; fasted conditions, across studies
[10] = Urine output over 24 hours, Phase I trial TR01, healthy subjects (Cohort 2); settings: five 24-hour collections, progressively higher doses
Description: as §4

With “17-(cyclobutylmethyl)-4,5α-epoxymorphinian-3,6α,14-triol, hydrochloride [nalbuphine]” the “Dose or time-dependent mean heart rate increase” value [1] was “no evidence of a dose or time-dependent mean heart rate increase”, the “Adverse event of increased urine output” value [2] was “no adverse event of increased urine output was reported” and the “Dose or time-dependent mean heart rate increase” value [3] was “no evidence of a dose or time-dependent mean heart rate increase”. For the same substance, the “Hypernatremia during nalbuphine treatment” value [4] was “No healthy subject (Table 5) or hemodialysis patient”, the “Trend of rising serum sodium during the treatment period” value [4] was “nor was there a trend of rising serum sodium” and the “Systolic blood pressure range throughout the study” value [5] was 78-148 mmHg. For the same substance, the “Dose-related reductions in blood pressure” value ([5]; Days −1 through 14) was “no consistent dose-related reductions in blood pressure”, the Hypotension ([5]; throughout the study) was “no subjects or patients developed hypotension” and the Aquaretic effect ([6]; dialysis patients, doses up to 240 mg BID) was “no evidence of an aquaretic effect”. For the same substance, the Aquaretic effect ([6]; healthy subjects, doses up to 180 mg BID) was “no evidence of an aquaretic effect”, the “Systolic blood pressure range throughout the study” value ([7]; dialysis patients) was 70-199 mmHg and the “Dose-related reductions in blood pressure” value ([7]; hemodialysis patients, Days −1 through 14 or 17) was “no consistent dose-related reductions in blood pressure”. The Hypotension ([7]; hemodialysis patients, throughout the study) was “no subjects or patients developed hypotension”, the “Hypernatremia during nalbuphine treatment” value [8] was “No healthy subject” and the “Trend of rising serum sodium during the treatment period” value [8] was “nor was there a trend of rising serum sodium”. The “Median Tmax” value [9] was 30 to 60 min and the “Increased urine output related to dose or duration of time on nalbuphine” value [10] was “no evidence of increased urine output”.
